This is an account of results in US20240327454A1, “DETERGENT AND METHOD FOR PURIFYING A BIOTHERAPEUTIC” (MEDIMMUNE, LLC, priority 2020, published 2024).

One series deals with AAV6.2 cell paste. The experiment in a line: Detergent lysis of AAV6.2 cell paste slurry, lysate AAV titer by qPCR. Particulars: for Lysate AAV6 Titer: 0.5% detergent, AAV6 cell paste lot A8498, 1 hour at RT. Format: cell-based. The method, then:
(§1) An AAV6.2 cell paste slurry was generated and stored at −80° C. Brij L9 (Laureth-9) was sourced from Croda International Plc. (East Yorkshire, United Kingdom). Triton X-100 was sourced from Spectrum Chemical (New Brunswick, NJ). Capto AVB resin was sourced from GE Healthcare (Piscataway, NJ). COSP filters were obtained from EMD Millipore (Burlington, MA). Sartopore 2 XLG, 0.8/0.2 um filters were obtained from Sartorius Stedim Biotech GmbH (Gottingen, Germany). All the buffer salts were sourced from Avantor Performance Chemicals (Center Valley, Pennsylvania).
(§2) For detergent lysis, the AAV6.2 cell paste was diluted to a 10% slurry with 20 mM Tris, 200 mM NaCl, 2 mM MgCl2, pH 7.5. 10% (w/w) detergent stock solution was spiked into cell slurry to bring final detergent concentration to 0.5% (v/w). Benzonase was spiked to 10 U/ml into cell slurry mixture and mixed slowly at RT for 1 hour.
(§3) AAV Purification was performed using a Capto AVB affinity column. Purification was controlled by Unicorn 7.0 software on an AKTA AVANT purchased from GE Healthcare (Piscataway, NJ). COSP POD filter was flushed with 20 mM Tris, 500 mM NaCl, 2 mM MgCl2, pH 7.5. 10% AAV6.2 cell lysate was clarified with COSP followed by Sartopore 2 XLG, 0.8/0.2 um filter. Capto AVB column was equilibrated with 20 mM Tris, 200 mM NaCl, 2 mM MgCl2, pH 7.5 for 3 column volumes (CV). Clarified cell lysate was loaded with residence time of 6 min. Column was re-equilibrated with 20 mM Tris, 200 mM NaCl, 2 mM MgCl2, pH 7.5 for 4 CV. Product was eluted from column with 50 mM citric acid, 500 mM NaCl, 2 mM MgCl2, pH 2.5. Eluate pH was adjusted to pH 8.0 with 1 M Tris/HCl, pH 8.0 AAV Titer was determined by centrifuging 10% lysate at 13,000 rpm for 10 min and collecting the supernatant. AAV titer was determined with in-house qPCR method.

The next series concerns AAV6.2. As to the kind of experiment: AAV purification on Capto AVB after cell lysis, eluate titer and infectivity. The note with it: for CaptoAVB Elu Infectivity / CaptoAVB Elu Titer: detergent cell lysis, cell paste lot A8489 (Brij-L9), A8102 (Triton X100). The procedure: as §1, §2
For freeze-and-thaw lysis, the cell paste slurry was put through 2 freeze-thaw cycles at −80° C. and RT. AAV lysate was diluted to 10% slurry with 20 mM Tris, 200 mM NaCl, 2 mM MgCl2, pH 7.5. Benzonase was spiked to 10 U/ml into cell slurry mixture and mixed slowly at RT for 1 hour.
as §3

For the next series, the system named is enveloped virus. The note with it: cited from earlier work.
The subject of the next series is aquatic organisms. Particulars: cited from earlier work.
In series [1] the test system is XMuLV. The experiment in a line: Viral inactivation by 1% detergent in XMuLV-spiked BisAb cell harvest media, plaque assay (Example 1). The format is cell-based, murine xenotropic leukemia virus-related virus. Set-up: Virus concentration: unit not given here. Particulars: for Log10 reduction value / Virus concentration: BisAb harvest media; for Virus concentration: room temperature; for viral inactivation kinetics: in words, compared to Laureth-9. From the text:
The viral inactivation of four detergents was examined using a CHO-derived cell harvest material for a monovalent bispecific human IgG1 monoclonal antibody. Brij L9 (Laureth-9), Myrj S25, and Brij S20 were sourced from Croda International Plc. (East Yorkshire, United Kingdom). Polidocanol 600 (Laureth-9) was sourced from Schärer & Schläpfer AG (Rothrist, Switzerland).
(§4) Harvest media was spiked with murine xenotropic leukemia virus-related virus (XMuLV) stock prior to the detergent spike.
(§5) Conditioned cell harvest media containing a monovalent bispecific human IgG1 monoclonal antibody (BisAb) was spiked with 8.5 logs of XMuLV. A sample of the virus spiked harvest media was collected and used as a hold control to determine the rate of viral inactivation without detergent.
(§6) A 10% (w/w) stock solution was made by dissolving detergent into 50 mM Tris pH 7.4. A cell harvest sample of BisAb media spiked with XMuLV was spiked to a 1% detergent concentration using an appropriate amount of the 10% stock solution. The hold control and reaction samples were incubated at room temperature. Samples were collected at 1, 10, 60, and 120 minutes and diluted 1:50 in McCoy medium to stop the viral inactivation reaction. Diluted samples and hold control were assayed for viral concentration using a plaque assay.

For series [2], the system named is XMuLV. As to the kind of experiment: Viral inactivation by Laureth-9 in XMuLV-spiked BisAb or BisFusion conditioned media (Example 2). Format: cell-based, murine xenotropic leukemia virus-related virus. The method, then: as §4, §5, §6
A study was performed essentially as described in Example 1 to examine the viral inactivation using detergent concentrations of 1% Brij L9 (Laureth-9, sourced from Croda International Plc., East Yorkshire, United Kingdom) and 1% Polidodecanol 600 (Laureth-9, sourced from Schärer & Schläpfer AG, Rothrist, Switzerland) for CHO-derived conditioned media for BisAb and 1% or 0.1% Brij L9 for CHO-derived conditioned media for a bispecific fusion protein (BisFusion).

The mark [3] stands for this setting: 0 min, 0.1% detergent, BisFusion.
Where [4] appears, read: 10 min, 0.1% detergent, BisFusion.
Where [5] appears, read: 10 min, 1% detergent, BisFusion.
Where [6] appears, read: 60 min, 0.1% detergent, BisFusion.
[7] abbreviates: 60 min, 1% detergent, BisFusion.
Setting [8] is: <1 min, 0.1% detergent, BisFusion.
Setting [9] is: <1 min, 1% detergent, BisFusion.

For Triton X-100 [reference compound], the “Lysate AAV6 Titer” value with AAV6.2 cell paste was found to be 11.03 Log10 vg/mL. Moreover, in the series with AAV6.2, the “CaptoAVB Elu Infectivity” value is given as 9.8 Log10 TCID50/mL and the “CaptoAVB Elu Titer” value is on record as 11.8 Log10 vg/mL. In addition, the enveloped virus inactivation entry in the series with enveloped virus (diverse set of experimental conditions) is reported as “greater than 4 logs”. Also, the endocrine disruption entry with aquatic organisms is listed as “can behave as endocrine disrupters in aquatic organisms”.

As for `CCCCCCCCCCCCOCCOCCOCCOCCOCCOCCOCCOCCOCCO` [Polidodecanol 600, 3,6,9,12,15,18,21,24,27-nonaoxanonatriacontan-1-ol], the Log10 reduction value in the series on XMuLV [1] (0 min) is on record as 0 Log10; in the series on XMuLV [1] (10 min), over 4.61 Log10; in the series on XMuLV [1] (60 min), over 4.61 Log10; with XMuLV [1] (120 min), over 4.61 Log10; in the series on XMuLV [1] (<1 min), over 4.61 Log10; in the series on XMuLV [2] (0 min, 1% detergent, BisAb), 0 Log10. The Log10 reduction value in the series with XMuLV [2] (10 min, 1% detergent, BisAb) is over 4.07 Log10; in the series with XMuLV [2] (60 min, 1% detergent, BisAb) it was over 4.07 Log10; in the series with XMuLV [2] (<1 min, 1% detergent, BisAb), over 4.03 Log10. Further, the Virus concentration is 7.79 in the series on XMuLV [1] (0 min); under 3.18 with XMuLV [1] (10 min); under 3.18 with XMuLV [1] (60 min); under 3.18 with XMuLV [1] (120 min); 7.00 with XMuLV [2] (0 min, 1% detergent, BisAb); under 2.88 in the series with XMuLV [2] (10 min, 1% detergent, BisAb). Also, the Virus concentration is listed as under 2.88 with XMuLV [2] (60 min, 1% detergent, BisAb) and under 2.88 in the series on XMuLV [2] (<1 min, 1% detergent, BisAb).

As to “polyoxyethylene (20) stearyl ether [Brij S20, reference compound]”, the Log10 reduction value is recorded as 0 Log10 in the series with XMuLV [1] (0 min); 2.90 Log10 in the series with XMuLV [1] (10 min); over 4.61 Log10 in the series on XMuLV [1] (60 min); over 4.61 Log10 in the series with XMuLV [1] (120 min); 0.89 Log10 in the series on XMuLV [1] (<1 min). The Virus concentration with XMuLV [1] (0 min) is reported as 7.79; in the series with XMuLV [1] (10 min), 4.89; with XMuLV [1] (60 min) it was under 3.18; with XMuLV [1] (120 min) it was under 3.18; with XMuLV [1] (<1 min), 6.9. In the series on XMuLV [1], the viral inactivation kinetics entry is “significantly slower”.

Consider “polyoxyethylene (23) lauryl ether [Brij 35]”, for which the “effectiveness for viral inactivation” value in the series on enveloped virus (finding of Conley et al. (2017)) is on record as “not effective for viral inactivation”.

For the compound `CC(C)(C)CC(C)(C)c1ccc(O)cc1` [octlyphenol], in the series with aquatic organisms, the endocrine disruption entry is recorded as “can behave as endocrine disrupters in aquatic organisms”.

For the compound `CCCCCCCCCCCCOCCOCCOCCOCCOCCOCCOCCOCCOCCO` [Brij L9, 3,6,9,12,15,18,21,24,27-nonaoxanonatriacontan-1-ol], the Log10 reduction value with XMuLV [1] (0 min) is on record as 0 Log10; in the series with XMuLV [1] (10 min) it was over 4.61 Log10; with XMuLV [1] (60 min), over 4.61 Log10; in the series on XMuLV [1] (120 min) it was over 4.61 Log10; with XMuLV [2] (setting [3]), 0 Log10; with XMuLV [2] (0 min, 1% detergent, BisAb), 0 Log10. The Log10 reduction value with XMuLV [2] (0 min, 1% detergent, BisFusion) is reported as 0 Log10; with XMuLV [2] (setting [4]), over 3.88 Log10; in the series on XMuLV [2] (10 min, 1% detergent, BisAb), over 4.07 Log10; in the series with XMuLV [2] (setting [5]) it was over 3.84 Log10; in the series with XMuLV [2] (setting [6]), over 3.88 Log10; in the series with XMuLV [2] (60 min, 1% detergent, BisAb) it was over 4.07 Log10. For the same compound, the Log10 reduction value in the series on XMuLV [2] (setting [7]) is over 3.84 Log10; with XMuLV [2] (setting [8]), over 3.88 Log10; in the series on XMuLV [2] (<1 min, 1% detergent, BisAb) it was over 4.03 Log10; with XMuLV [2] (setting [9]) it was over 3.84 Log10. Also, the Virus concentration is on record as 7.79 in the series with XMuLV [1] (0 min); under 3.18 in the series with XMuLV [1] (10 min); under 3.18 in the series on XMuLV [1] (60 min); under 3.18 in the series on XMuLV [1] (120 min); 7.21 with XMuLV [2] (setting [3]); 7.00 in the series on XMuLV [2] (0 min, 1% detergent, BisAb). The Virus concentration in the series on XMuLV [2] (0 min, 1% detergent, BisFusion) was 7.21; in the series on XMuLV [2] (setting [4]), under 2.88; in the series on XMuLV [2] (10 min, 1% detergent, BisAb), under 2.88; in the series on XMuLV [2] (setting [5]) it was under 2.88; in the series with XMuLV [2] (setting [6]) it was under 2.88; in the series on XMuLV [2] (60 min, 1% detergent, BisAb) it was under 2.88. Further, the Virus concentration in the series on XMuLV [2] (setting [7]) is under 2.88; with XMuLV [2] (setting [8]), under 2.88; in the series with XMuLV [2] (<1 min, 1% detergent, BisAb), under 2.88; in the series with XMuLV [2] (setting [9]), under 2.88. Besides, the viral inactivation kinetics result with XMuLV [1] is on record as “improved, desirable viral inactivation kinetics”. Besides, in the series with AAV6.2 cell paste, the “Lysate AAV6 Titer” value was 11.04 Log10 vg/mL. Besides, the “cell lysis for AAV purification” value with AAV6.2 cell paste (in words, compared with Triton X-100) is “as effective for cell lysis for AAV purification as Triton X-100”. For the same compound, the “CaptoAVB Elu Infectivity” value with AAV6.2 was determined as 10.5 Log10 TCID50/mL. Also, in the series with AAV6.2, the “CaptoAVB Elu Titer” value worked out at 12.2 Log10 vg/mL. Besides, the “impact on AAV infectivity” value with AAV6.2 (in words) is listed as “does not show any negative impact”.
